US10624895B2, “Methods of sensitizing a patient with glioma to a therapeutic agent by administering small hairpin RNA targeting PDZ-RHOGEF” (THE TRANSLATIONAL GENOMICS RESEARCH INSTITUTE, priority 2016, dated 2020)

Columns and labels:
Type in all cases: cell-based, human
[1] = system: T98G, GBM10, and GBM43 cells; test: Cell proliferation by automated cell counting; settings: 5, 50, 500 μM PPF, up to 144 hours
Procedure: (§1) FIG. 25A—T98G, GBM43, and GBM10 cells were incubated with increasing concentrations of PPF (0, 5, 50, and 500 After 0, 48, 96 and 144 hours of treatment, cell were trypsinized and counted using an automated cell counter. FIG. 25B—GBM43, GBM10, and T98G glioma cells were treated with increasing doses of PPF (0.5, 1, 5, 10, and 20 μM) in triplicate. The CellTiterGlo® (Promega) reagent was used to measure survival. Raw values were normalized on a plate-by-plate basis such that 100% cell viability was equivalent to the mean of vehicle wells and 0% cell viability was equivalent to the mean of the MG132 positive control. The normalized data was used to assess viability of glioma cells after PPF treatment.
(§2) Referring now to FIGS. 25A and 25B: To determine if PPF influences glioma cell proliferation, the inventors treated T98G, GBM10, and GBM43 cells with increasing concentrations of PPF and evaluated cell proliferation over the course of 144 hours. Briefly, 1.25×10^5 cells were seeded (n=3) in 12-well plates in 1 mL of DMEM supplemented with 10% FBS and allowed to attach at 37° C. for 16 hrs. […] After 0, 48, 96 and 144 hours of treatment, the cells were trypsinized and counted using the automated cell counter. […] Subsequently, 100 μL of CellTiterGlo® reagent was added to each well and luminescence was measured using Envision Reader. […]

[2] = system: T98G, GBM10, and GBM43 cells; test: CellTiterGlo cytotoxicity assay; settings: 0.5 to 20 μM PPF, 72 hours
Procedure: as §1, §2

T98G and GBM43 cells = test: Clonogenic survival assay, PPF with TMZ or radiation
Procedure: (§3) FIGS. 26A, 26B, and 26C depict that PPF sensitizes GBM cells to TMZ and radiotherapy. FIG. 26A—A clonogenic assay was used to assess T98G and GBM43 cells survival after TMZ and radiation treatment. Cells were pre-treated with 5 μM PPF for 24 hours, and then either treated with 250 μM TMZ for 24 hours or exposed to 2 Gy radiation. Graph depicts the surviving fraction in the treated cells compared to vehicle (VC) treated or non-treated (NT) cells, **p<0.01. FIG. 26B—T98G glioma cells were treated with vehicle, PPF (5 μM) TMZ (250 μM) and PPF in combination with TMZ. TMZ-induced apoptosis was assayed by immunoblot analysis of cell lysates with an antibody to cleaved PARP. Immunoblotting for α-Tubulin was included as a loading control. FIG. 26C—T98G, GBM10, and GBM43 cells were treated with PPF ([…], and then immunoblotted to assess the activation of AKT and NF-κB. Immunoblotting for β-Actin is included as a loading control.
(§4) Referring now to FIGS. 26A, 26B, and 26C: Knockdown of TROY expression with shRNA decreases TMZ resistance in GBM cells in vitro (See Reference 42). […] Following combination therapy, cells were trypsinized, counted, and plated in a 6-well culture dish at densities of 100, 250, and 500 cells per well in triplicate. Cells were incubated for 12 days then fixed, stained with 0.5% crystal violet solution, and counted manually by blinded observers. […]

cleaved PARP = test: Immunoblot for cleaved PARP (TMZ-induced apoptosis); settings: T98G cells, PPF (5 μM) in combination with TMZ (250 μM), compared to TMZ alone
Procedure: as §3, §4

NF-κB = test: Immunoblot of NF-κB activation after PPF; settings: T98G and GBM43 cells treated with PPF
Procedure: as §3, §4

CCCn1cnc2c1c(=O)n(CCCCC(C)=O)c(=O)n2C [PPF, 3-methyl-1-(5-oxohexyl)-7-propyl-3,7-dihydro-1H-purine-2,6-dione] was tested, and the glioma cell proliferation [1] was “did not affect the proliferation”, the cell viability [2] was “negligible loss of cell viability” and the surviving fraction (T98G and GBM43 cells; 5 μM PPF 24 hours then 250 μM TMZ 24 hours, compared to TMZ alone, T98G and GBM43) was “significantly decreased the surviving fraction”. For the same molecule, the surviving fraction (T98G and GBM43 cells; 5 μM PPF 24 hours then 2Gy radiation, compared to 2Gy radiation alone) was “significantly decreased the surviving fraction”, the “cleaved PARP” value (cleaved PARP) was “increase in cleaved PARP” and the NF-κB phosphorylation (NF-κB) was “effectively decreased”.
